Measurements taken from US20250206778A1, “PEPTIDE HAVING ANTIDIABETIC ACTIVITY, PEPTIDE COMPLEX, AND USE THEREOF” (CAREGEN CO., LTD., priority 2022, published 2025).

Assays:
Assay type in all cases: cell-based
[1] = system: adipose triglyceride lipase (ATGL); test: Western blot of lipolytic enzyme proteins in 3T3-L1 adipocytes; conditions: 2, 20 μg/ml, 1 h, FIGS. 13a, 13b
Description: (§1) Whether the peptide of SEQ ID NO: 2 prepared in Preparation Example 1 promotes the expressions of lipolytic enzyme proteins in adipocytes was tested through protein expression analysis (western blot analysis).
(§2) When 3T3-L1 preadipocytes reached 80% confluence, they were seeded in a 6-well plate at 5×10^5 cells/well and used for the experiment. Two days after reaching confluence, the culture medium was replaced with a differentiation induction medium [DMEM medium containing 10% FBS, 1 μg/ml insulin, 0.5 mM isobutyl methyl xanthine (IBMX) (Sigma, USA), and 1 μM dexamethasone (Sigma, USA)], and differentiation into adipocytes was induced. Two days after induction, preadipocytes were cultured for two days in a medium containing 10% FBS and 10 μg/mL insulin, and then the medium was replaced with a medium containing 10% FBS every two days until preadipocytes differentiated into adipocytes. When differentiation was completed, the medium was replaced with a serum-free medium, and cells were cultured for four hours to induce starvation. Cells were divided into an untreated group (negative control), the peptide of Preparation Example 1 (2, 20 μg/ml)-treatment group, and the TNFα (20 nM)-treatment group (positive control), and then treated with the substances at predetermined concentrations and cultured for one hour. Then, the cells in each treatment group were lysed by adding a lysis buffer. After lysis, proteins obtained by centrifugation at 4° C. and 12,000 rpm for 30 minutes were quantified using a BCA kit. Proteins were subjected to sodium dodecyl sulfate-polyacrylamide gel electrophoresis (SDS-PAGE) and electrotransferred to a membrane. The protein-attached membrane was blocked with 5% skim milk treatment, and then the primary antibody was reacted overnight at 4° C. The membrane was washed with PBS-T, the secondary antibody was reacted at room temperature for one hour, the membrane was washed again with PBS-T, and then visualization was carried out by using Gel Doc (Bio-Rad, Hercules, CA, USA) with a western detection reagent (Elpis Biotech, Daejeon, Korea). […]

[2] = system: perilipin (PLIN); test: as above; conditions: 2, 20 μg/ml, 1 h, FIGS. 13a, 13b
Description: as §1, §2

[3] = system: phosphorylated hormone-sensitive lipase (pHSL); test: as above; conditions: 2, 20 μg/ml, 1 h, FIGS. 13a, 13b
Description: as §1, §2

[4] = system: 3T3-L1 adipocytes; test: Glycerol release assay (lipolysis) in 3T3-L1 adipocytes; conditions: 2, 20 μg/ml, 48 h, FIG. 14
Description: The release amount of glycerol, a lipolysis product, was analyzed to determine whether the peptide of SEQ ID NO: 2 prepared in Preparation Example 1 promotes lipolysis in adipocytes.
When 3T3-L1 preadipocytes reached 80% confluence, they were seeded in a 6-well plate at 5×10^5 cells/well and used for the experiment. Two days after reaching confluence, the culture medium was replaced with a differentiation induction medium [DMEM medium containing 10% FBS, 1 μg/ml insulin, 0.5 mM isobutyl methyl xanthine (IBMX) (Sigma, USA), and 1 μM dexamethasone (Sigma, USA)], and differentiation into adipocytes was induced. Two days after induction, preadipocytes were cultured for two days in a medium containing 10% FBS and 10 μg/mL insulin, and then the medium was replaced with a medium containing 10% FBS every two days until preadipocytes differentiated into adipocytes. When differentiation was completed, the medium was replaced with a serum-free medium, and cells were cultured for four hours to induce starvation. Cells were divided into an untreated group (negative control), the peptide of SEQ ID NO: 2 of Preparation Example 1 (2, 20 μg/ml)-treatment group, and the TNF-α (20 nM)-treatment group (positive control), and then treated with the substances at predetermined concentrations and cultured for 48 hours. Then, the supernatants were obtained. […]

[5] = system: phospho-AKT; test: Western blot of insulin signals in 3T3-L1 adipocytes (peptide of SEQ ID NO: 2); conditions: 2, 20 μg/ml, FIGS. 15a, 15b
Description: (§3) When 3T3-L1 preadipocytes reached 80% confluence, they were seeded in a 6-well plate at 5×10^5 cells/well and used for the experiment. Two days after reaching confluence, the culture medium was replaced with a differentiation induction medium [DMEM medium containing 10% FBS, 1 μg/ml insulin, 0.5 mM isobutyl methyl xanthine (IBMX) (Sigma, USA), and 1 μM dexamethasone (Sigma, USA)], and differentiation into adipocytes was induced. Two days after induction, preadipocytes were cultured for two days in a medium containing 10% FBS and 10 μg/mL insulin, and then the medium was replaced with a medium containing 10% FBS every two days until preadipocytes differentiated into adipocytes. When differentiation was completed, the medium was replaced with a serum-free medium, and cells were cultured for four hours to induce starvation. To the cells, each of rhTNF-α (2 nM), insulin (1 μg/ml), and the peptide of SEQ ID NO: 2 of Preparation Example 1 (2, 20 μg/ml) was added and the cells were cultured for one hour. The cells were cultured for 30 minutes, the cells of each treatment group were lysed by adding a lysis buffer, and then centrifuged at 4° C. and 12,000 rpm for 30 minutes. The obtained proteins were quantified using a BCA kit. Proteins were subjected to sodium dodecyl sulfate-polyacrylamide gel electrophoresis (SDS-PAGE) and electrotransferred to a membrane. The protein-attached membrane was blocked with 5% skim milk treatment, and then the primary antibody was reacted overnight at 4° C. The membrane was washed with PBS-T, the secondary antibody was reacted at room temperature for one hour, the membrane was washed again with PBS-T, and then visualization was carried out by using Gel Doc (Bio-Rad, Hercules, CA, USA) with a western detection reagent (Elpis Biotech, Daejeon, Korea). The antibodies used in the experiment are as follows: anti-phospho-IRS (Ser302) antibody (Cell signaling technology (CST), USA), anti-phospho-IRS (Tyr632) antibody (Cell signaling technology (CST), USA), anti-phospho-AKT antibody (Cell signaling technology (CST), USA), anti-phospho-AMPK antibody (Cell signaling technology (CST), USA), and anti-α-tubulin antibody (Santa Cruz Biotechnology, USA). […] In addition, it was confirmed that when the peptide of the present invention was treated, the phosphorylation of AMPK, an insulin sensitivity-increasing signaling protein, increased. Meanwhile, it was confirmed that phosphorylation of Ser302 of an insulin receptor substrate (IRS) decreased under an insulin resistance-inducing environment by the treatment of the present peptide, and thus insulin resistance was inhibited.

[6] = system: phospho-AMPK; test: as above; conditions: 2, 20 μg/ml, FIGS. 15a, 15b
Description: as §3

[7] = system: phospho-IRS (Ser302); test: as above; conditions: rhTNF-α 2 nM, 2, 20 μg/ml, FIGS. 15a, 15b
Description: as §3

[8] = system: phospho-IRS (Tyr632); test: as above; conditions: 2, 20 μg/ml, FIGS. 15a, 15b
Description: as §3

KGSATGWMA [peptide of SEQ ID NO: 2]
expression of adipose triglyceride lipase (ATGL) [1]: increased | expression of perilipin (PLIN) [2]: increased | expression of phosphorylated hormone-sensitive lipase (pHSL) [3]: increased | release amount of glycerol, a lipolysis product [4]: increased in a treated peptide concentration-dependent manner | activation of phosphorylation-AKT [5]: promoted | phosphorylation of AMPK [6]: increased | phosphorylation of Ser302 of insulin receptor substrate (IRS) under an insulin resistance-inducing environment [7]: decreased | phosphorylation of Tyr632 of insulin receptor substrate (IRS) [8]: promoted
